In patent US9150632B2 (Indiana University Research and Technology Corporation, priority 2009, dated 2015):
Where two headings read alike, the source gives them in different places. Non-standard residues stand in square brackets, D forms with d. Residues, ends and D or L forms follow the SMILES beside them. No end group written: not given here. *: point of attachment. Palmitoyl = CCCCCCCCCCCCCCCC(=O)*; Myristoyl = CCCCCCCCCCCCCC(=O)*; Aib = CC(C)(N)C(=O)O

What was measured:
[1] = target: T1, glucagon receptor (Homo sapiens, UniProt P47871); experiment: Functional assay-cAMP synthesis, luciferase reporter in HEK293 cells, glucagon receptor; type: cell-based; details: for Glucagon Receptor % relative activity: activity relative to the native hormone at the indicated receptor; for EC50: cAMP induction, in vitro, as in Example 14; for % Relative activity at the Receptor for Glucagon: relative to the native hormone
T1 construct: expressed in transfected cells; host or cells: HEK293
T1 sequence (P47871 26-477): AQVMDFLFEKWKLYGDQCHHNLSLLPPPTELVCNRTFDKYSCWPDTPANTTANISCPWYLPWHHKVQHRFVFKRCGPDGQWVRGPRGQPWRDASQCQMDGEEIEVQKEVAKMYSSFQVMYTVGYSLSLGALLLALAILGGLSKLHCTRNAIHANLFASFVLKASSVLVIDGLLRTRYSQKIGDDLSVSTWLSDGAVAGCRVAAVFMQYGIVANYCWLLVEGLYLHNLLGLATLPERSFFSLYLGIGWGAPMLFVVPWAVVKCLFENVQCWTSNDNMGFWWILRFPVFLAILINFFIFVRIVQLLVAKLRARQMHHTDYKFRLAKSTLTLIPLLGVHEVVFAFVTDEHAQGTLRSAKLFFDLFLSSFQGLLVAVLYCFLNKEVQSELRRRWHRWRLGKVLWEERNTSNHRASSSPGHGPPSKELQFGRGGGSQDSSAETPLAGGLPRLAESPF

[2] = target: T2, GIP receptor (Homo sapiens, UniProt P48546); experiment: Functional assay-cAMP synthesis, luciferase reporter in HEK293 cells, GIP receptor; type: cell-based; details: for GIP Receptor % relative activity: activity relative to the native hormone at the indicated receptor; for EC50: cAMP induction, in vitro, as in Example 14; for % Relative activity at the Receptor for GIP: relative to the native hormone
T2 construct: expressed in transfected cells; host or cells: HEK293
T2 sequence (P48546 22-466): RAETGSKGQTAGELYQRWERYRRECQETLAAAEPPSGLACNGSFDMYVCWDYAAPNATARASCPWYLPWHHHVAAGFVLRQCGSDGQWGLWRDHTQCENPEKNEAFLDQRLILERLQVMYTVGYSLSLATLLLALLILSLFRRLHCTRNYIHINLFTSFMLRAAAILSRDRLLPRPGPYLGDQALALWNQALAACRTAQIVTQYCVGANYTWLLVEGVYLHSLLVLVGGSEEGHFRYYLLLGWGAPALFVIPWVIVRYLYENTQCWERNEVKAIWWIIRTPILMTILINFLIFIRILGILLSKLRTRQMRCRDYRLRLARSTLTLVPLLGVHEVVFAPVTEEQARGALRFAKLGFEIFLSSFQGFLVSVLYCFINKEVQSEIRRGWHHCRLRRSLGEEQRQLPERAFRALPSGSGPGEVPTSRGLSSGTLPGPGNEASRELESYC

[3] = target: T3, GLP-1 receptor (Homo sapiens, UniProt P43220); details: for GLP-1 Receptor % relative activity: activity relative to the native hormone at the indicated receptor; for % Relative activity at the Receptor for GLP-1: relative to the native hormone
T3 sequence (P43220 24-463, species assumed): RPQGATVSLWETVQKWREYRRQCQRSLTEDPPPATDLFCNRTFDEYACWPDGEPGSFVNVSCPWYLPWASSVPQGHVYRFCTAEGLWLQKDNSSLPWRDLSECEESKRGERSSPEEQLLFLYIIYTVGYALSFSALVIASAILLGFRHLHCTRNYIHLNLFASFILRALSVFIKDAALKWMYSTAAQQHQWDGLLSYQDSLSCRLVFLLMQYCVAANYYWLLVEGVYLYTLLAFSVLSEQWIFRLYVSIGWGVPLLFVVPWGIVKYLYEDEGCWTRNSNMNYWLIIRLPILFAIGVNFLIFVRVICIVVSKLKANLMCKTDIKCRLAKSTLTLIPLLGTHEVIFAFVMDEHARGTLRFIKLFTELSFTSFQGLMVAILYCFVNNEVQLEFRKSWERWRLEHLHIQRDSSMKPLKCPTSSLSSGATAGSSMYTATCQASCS
Experimental: (§1) Peptide absorbance readings were obtained from UV Absorbance measurements at 280 nm on a Genesys 6 Spectrophotometer (Thermo Electron Corporation). Beer's Law was used to calculate solution concentrations based on the number of tryptophan and tyrosine residues in each analog. At the end of the incubation, 100 μL LucLite luminescence substrate reagent was added to each well, the plate sealed and shaken, and placed into a Wallac Trilux luminescence counter for cAMP detection.
(§2) HEK293 cells were co-transfected with the GcgR or GLP-1R cDNAs and a luciferase reporter gene-linked to a cAMP response element (CRE). […] The plate was incubated for 10 min in the dark and light output was quantified on a MicroBeta1450 liquid scintillation counter (Perkin-Elmer, Wellesley, Mass.).

[4] = target: T3, GLP-1 receptor; experiment: cell-based
Experimental: as §1, §2

Row | Compound | Glucagon Receptor % relative activity [1] [%] | EC50 [1] [nM] | GIP Receptor % relative activity [2] [%] | EC50 [2] [nM] | GLP-1 Receptor % relative activity [3] [%] | EC50 [4] [nM] | % Relative activity at the Receptor for Glucagon ([1]; Table 35) [%] | % Relative activity at the Receptor for GIP ([2]; Table 35) [%] | % Relative activity at the Receptor for GLP-1 ([3]; Table 35) [%] | % Relative activity at the Receptor for Glucagon ([1]; Table 36) [%] | % Relative activity at the Receptor for GIP ([2]; Table 36) [%] | % Relative activity at the Receptor for GLP-1 ([3]; Table 36) [%] | agonist activity at the GIP receptor ([2]; text on Table 34) | EC50 ([1]; read-out: Glucagon Receptor EC50) [nM] | EC50 ([2]; read-out: GIP Receptor EC50) [nM] | EC50 ([3]; read-out: GLP-1 Receptor EC50, cAMP induction, in vitro, as in Example 14) [nM]
1 | CC[C@H](C)[C@H](NC(=O)[C@H](Cc1ccccc1)NC(=O)[C@H](CCC(=O)O)NC(=O)[C@H](CCCCN)NC(=O)[C@H](C)NC(=O)[C@H](C)NC(=O)[C@H](CCC(N)=O)NC(=O)[C@H](CCC(=O)O)NC(=O)[C@H](CC(=O)O)NC(=O)[C@H](CC(C)C)NC(=O)[C@H](Cc1ccc(O)cc1)NC(=O)[C@H](CCCCN)NC(=O)[C@H](CO)NC(=O)[C@H](Cc1ccc(O)cc1)NC(=O)[C@H](CC(=O)O)NC(=O)[C@H](CO)NC(=O)[C@@H](NC(=O)[C@H](Cc1ccccc1)NC(=O)[C@@H](NC(=O)CNC(=O)[C@H](CCC(N)=O)NC(=O)C(C)(C)NC(=O)[C@@H](N)Cc1c[nH]cn1)[C@@H](C)O)[C@@H](C)O)C(=O)N[C@@H](CS)C(=O)N[C@@H](Cc1c[nH]c2ccccc12)C(=O)N[C@@H](CC(C)C)C(=O)N[C@@H](CCSC)C(=O)N[C@@H](CC(N)=O)C(=O)NCC(=O)NCC(=O)N1CCC[C@H]1C(=O)N[C@@H](CO)C(=O)N[C@@H](CO)C(=O)NCC(=O)N[C@@H](C)C(=O)N1CCC[C@H]1C(=O)N1CCC[C@H]1C(=O)N1CCC[C@H]1C(=O)N[C@@H](CO)C(=O)N[C@@H](CCCCN)C(N)=O [mt-346] | 3.70 | 0.954 | 0.34 | 0.796 | 366.67 | 0.0015 |  |  |  |  |  |  |  |  |  | 
2 | CC[C@H](C)[C@H](NC(=O)[C@H](Cc1ccccc1)NC(=O)[C@H](CCC(=O)O)NC(=O)[C@H](CCCCN)NC(=O)[C@H](C)NC(=O)[C@H](C)NC(=O)[C@H](CCC(N)=O)NC(=O)C(C)(C)NC(=O)[C@H](CC(=O)O)NC(=O)[C@H](CC(C)C)NC(=O)[C@H](Cc1ccc(O)cc1)NC(=O)[C@H](CCCCN)NC(=O)[C@H](CO)NC(=O)[C@H](Cc1ccc(O)cc1)NC(=O)[C@H](CC(=O)O)NC(=O)[C@H](CO)NC(=O)[C@@H](NC(=O)[C@H](Cc1ccccc1)NC(=O)[C@@H](NC(=O)CNC(=O)[C@H](CCC(N)=O)NC(=O)C(C)(C)NC(=O)[C@@H](N)Cc1c[nH]cn1)[C@@H](C)O)[C@@H](C)O)C(=O)N[C@@H](CS)C(=O)N[C@@H](Cc1c[nH]c2ccccc12)C(=O)N[C@@H](CC(C)C)C(=O)N[C@@H](CCSC)C(=O)N[C@@H](CC(N)=O)C(=O)NCC(=O)NCC(=O)N1CCC[C@H]1C(=O)N[C@@H](CO)C(=O)N[C@@H](CO)C(=O)NCC(=O)N[C@@H](C)C(=O)N1CCC[C@H]1C(=O)N1CCC[C@H]1C(=O)N1CCC[C@H]1C(=O)N[C@@H](CO)C(=O)N[C@@H](CCCCN)C(N)=O [mt-348] (H-H[Aib]QGTFTSDYSKYLD[Aib]QAAKEFICWLMNGGPSSGAPPPSK-NH2) | 8.16 |  | 0.15 |  | 148.65 | 0.0037 | 8.2 | 0.2 | 149 |  |  |  |  |  |  | 
3 | CCCCCCCCCCCCCCCC(=O)NCCCC[C@H](NC(=O)[C@H](CO)NC(=O)[C@@H]1CCCN1C(=O)[C@@H]1CCCN1C(=O)[C@@H]1CCCN1C(=O)[C@H](C)NC(=O)CNC(=O)[C@H](CO)NC(=O)[C@H](CO)NC(=O)[C@@H]1CCCN1C(=O)CNC(=O)CNC(=O)[C@H](C)NC(=O)[C@H](CC(C)C)NC(=O)[C@H](CC(C)C)NC(=O)[C@H](Cc1c[nH]c2ccccc12)NC(=O)[C@H](CC(N)=O)NC(=O)[C@@H](NC(=O)[C@H](Cc1ccccc1)NC(=O)[C@H](CCC(=O)O)NC(=O)C(C)(C)NC(=O)[C@H](C)NC(=O)[C@H](C)NC(=O)[C@H](CCC(N)=O)NC(=O)[C@H](CCCCN)NC(=O)[C@H](CC(=O)O)NC(=O)[C@H](CC(C)C)NC(=O)[C@H](Cc1ccc(O)cc1)NC(=O)[C@@H](NC(=O)[C@H](CO)NC(=O)[C@H](Cc1ccc(O)cc1)NC(=O)[C@H](CC(=O)O)NC(=O)[C@H](CO)NC(=O)[C@@H](NC(=O)[C@H](Cc1ccccc1)NC(=O)[C@@H](NC(=O)CNC(=O)[C@H](CCC(N)=O)NC(=O)C(C)(C)NC(=O)[C@@H](N)Cc1ccc(O)cc1)[C@@H](C)O)[C@@H](C)CC)[C@@H](C)CC)C(C)C)C(N)=O [mt-358] (H-Y[Aib]QGTFISDYSIYLDKQAA[Aib]EFVNWLLAGGPSSGAPPPSK(Palmitoyl)-NH2) |  |  |  |  |  |  |  |  |  | 710.29 | 313.61 | 11.89 |  |  |  | 
4 | CC[C@H](C)[C@H](NC(=O)[C@H](CO)NC(=O)[C@H](Cc1ccc(O)cc1)NC(=O)[C@H](CC(=O)O)NC(=O)[C@H](CO)NC(=O)[C@@H](NC(=O)[C@H](Cc1ccccc1)NC(=O)[C@@H](NC(=O)CNC(=O)[C@H](CCC(N)=O)NC(=O)C(C)(C)NC(=O)[C@@H](N)Cc1c[nH]cn1)[C@@H](C)O)[C@@H](C)O)C(=O)N[C@@H](Cc1ccc(O)cc1)C(=O)N[C@@H](CC(C)C)C(=O)N[C@@H](CC(=O)O)C(=O)NC(C)(C)C(=O)N[C@@H](CCC(N)=O)C(=O)N[C@@H](C)C(=O)N[C@@H](C)C(=O)N[C@@H](CCCCN)C(=O)N[C@@H](CCC(=O)O)C(=O)N[C@@H](Cc1ccccc1)C(=O)N[C@H](C(=O)N[C@@H](CC(N)=O)C(=O)N[C@@H](Cc1c[nH]c2ccccc12)C(=O)N[C@@H](CC(C)C)C(=O)N[C@@H](CCSC)C(=O)N[C@@H](CC(N)=O)C(=O)NCC(=O)NCC(=O)N1CCC[C@H]1C(=O)N[C@@H](CO)C(=O)N[C@@H](CO)C(=O)NCC(=O)N[C@@H](C)C(=O)N1CCC[C@H]1C(=O)N1CCC[C@H]1C(=O)N1CCC[C@H]1C(=O)N[C@@H](CO)C(=O)N[C@@H](CCCCN)C(N)=O)C(C)C [mt-361] (H-H[Aib]QGTFTSDYSIYLD[Aib]QAAKEFVNWLMNGGPSSGAPPPSK-NH2) | 3.61 | 1.77 | 0.29 | 1.05 | 226.35 | 0.0109 |  |  |  |  |  |  |  |  |  | 
5 | CCCCCCCCCCCCCCCC(=O)NCCCC[C@H](NC(=O)[C@H](CO)NC(=O)[C@@H]1CCCN1C(=O)[C@@H]1CCCN1C(=O)[C@@H]1CCCN1C(=O)[C@H](C)NC(=O)CNC(=O)[C@H](CO)NC(=O)[C@H](CO)NC(=O)[C@@H]1CCCN1C(=O)CNC(=O)CNC(=O)[C@H](CC(N)=O)NC(=O)[C@H](CCSC)NC(=O)[C@H](CC(C)C)NC(=O)[C@H](Cc1c[nH]c2ccccc12)NC(=O)[C@H](CC(N)=O)NC(=O)[C@@H](NC(=O)[C@H](Cc1ccccc1)NC(=O)[C@H](CCC(=O)O)NC(=O)[C@H](CCCCN)NC(=O)[C@H](C)NC(=O)[C@H](C)NC(=O)[C@H](CCC(N)=O)NC(=O)C(C)(C)NC(=O)[C@H](CC(=O)O)NC(=O)[C@H](CC(C)C)NC(=O)[C@H](Cc1ccc(O)cc1)NC(=O)[C@@H](NC(=O)[C@H](CO)NC(=O)[C@H](Cc1ccc(O)cc1)NC(=O)[C@H](CC(=O)O)NC(=O)[C@H](CO)NC(=O)[C@@H](NC(=O)[C@H](Cc1ccccc1)NC(=O)[C@@H](NC(=O)CNC(=O)[C@H](CCC(N)=O)NC(=O)C(C)(C)NC(=O)[C@@H](N)Cc1c[nH]cn1)[C@@H](C)O)[C@@H](C)O)[C@@H](C)CC)C(C)C)C(N)=O [mt-362] (H-H[Aib]QGTFTSDYSIYLD[Aib]QAAKEFVNWLMNGGPSSGAPPPSK(Palmitoyl)-NH2; N-terminus assumed) | 83.17 | 0.0768 | 3.95 | 0.0782 | 240.96 | 0.102 |  |  |  |  |  |  | exceptionally potent activity |  |  | 
6 | CC[C@H](C)[C@H](NC(=O)[C@H](Cc1ccccc1)NC(=O)[C@H](CCC(=O)O)NC(=O)[C@H](CCCCN)NC(=O)[C@H](C)NC(=O)[C@H](C)NC(=O)[C@H](CCC(N)=O)NC(=O)[C@H](CCC(=O)O)NC(=O)[C@H](CC(=O)O)NC(=O)[C@H](CC(C)C)NC(=O)[C@H](Cc1ccc(O)cc1)NC(=O)[C@H](CCCCN)NC(=O)[C@H](CO)NC(=O)[C@H](Cc1ccc(O)cc1)NC(=O)[C@H](CC(=O)O)NC(=O)[C@H](CO)NC(=O)[C@@H](NC(=O)[C@H](Cc1ccccc1)NC(=O)[C@@H](NC(=O)CNC(=O)[C@H](CCC(N)=O)NC(=O)C(C)(C)NC(=O)[C@@H](N)Cc1c[nH]cn1)[C@@H](C)O)[C@@H](C)O)C(=O)N[C@@H](C)C(=O)N[C@@H](Cc1c[nH]c2ccccc12)C(=O)N[C@@H](CC(C)C)C(=O)N[C@@H](CCSC)C(=O)N[C@@H](CC(N)=O)C(=O)NCC(=O)NCC(=O)N1CCC[C@H]1C(=O)N[C@@H](CO)C(=O)N[C@@H](CO)C(=O)NCC(=O)N[C@@H](C)C(=O)N1CCC[C@H]1C(=O)N1CCC[C@H]1C(=O)N1CCC[C@H]1C(=O)N[C@@H](CO)C(=O)N[C@@H](CCCCN)C(N)=O [mt-363] | 7.76 | 0.823 | 0.73 | 0.425 | 671.66 | 0.0037 |  |  |  |  |  |  |  |  |  | 
7 | mt-349 (H[Aib]QGTFTSDYSKYLDEQAAKEFIC(PEG 40 kDa)WLMNGGPSSGAPPPSK(Myristoyl)-NH2; also: acylated with a C14 fatty acyl group, site not given here) | 3.82 |  | 0.18 |  | 286.36 |  |  |  |  |  |  |  |  | 0.549 | 1.99 | 0.0022
